Assay results: article PMC10086023, “The effect of barium and strontium on activity of glucoamylase QsGH97a from Qipengyuania seohaensis SW-135” (Scientific Reports, 2023)

Test system: T1, QsGH97a
T1 construct: pSMT3 His-SUMO fusion in E. coli BL21(DE3), tag cut by Ulp1; probable dimer; forward primer encodes MIRHIALFI; catalytic Glu378, Glu459, Glu483
Experiment: p-nitrophenol release at […] nm, Michaelis-Menten fit
Type: biochemical, Qipengyuania seohaensis
Details: 20 mM Tris-HCl pH 8.0, 50 °C, no added metal ion

With `O=[N+]([O-])c1ccc(O[C@H]2O[C@H](CO)[C@@H](O)[C@H](O)[C@H]2O)cc1` [pNPαGlu, p-Nitrophenyl-α-D-glucopyranoside] the Km was 200 ± 20 µM.
